Results as given in patent US20250152731A1, “ANTI-TROP2 ANTIBODY COMBINATION THERAPIES AND METHODS OF USE THEREOF” (priority 2021, published 2025).

Assays:
[1] = tested on: TROP2; assay: Immunoblotting of TROP2 protein in breast cancer cell lines; format: cell-based, human
Method: (§1) Following treatments, cells were washed with cold PBS and lysed in 1× Laemmli buffer. The protein concentrations in the cell lysates were measured using Pierce BCA protein assay Kit (ThermoFisher). The same amount protein for each sample (20-50 μg/lane) was loaded to SDS-PAGE gel, followed by transferring proteins to a 0.2 μm nitrocellulose membrane (Bio-Rad Laboratories). Membranes were blocked with blocking buffer Blocker Casein in PBS (ThermoFisher) at room temperature for 1 hour, followed by immunoblotting with the primary antibodies in 5% BSA TBST buffer at room temperature overnight. After washing with TBST buffer, the immunoblotting membrane was then probed with the secondary antibodies with fluorescence conjugation. The immunoblots were visualized and the immunoblotting signal intensity quantitated using the Odyssey IR imaging system (Li-Cor Biosciences).
Five cell lines (BCX-011, BCX-010, Sum-159, BCX-010 transfected with control shRNA, and BCX-010 transfected with Zeb1 shRNA) were treated with decitabine (a DNA methyltransferase inhibitor) at 1 μM for 3 days (FIG. 1B). To knockdown Zeb1, BCX-010 cells were transduced with a lentivirus containing Zeb1 shRNA, followed by puromycin selection.
(§2) Breast cancer cell lines BCX-010CL, BCX-011CL, and SUM159 cells were treated with decitabine, azacytidine, panobinostat, vorinostat, tazemetostat at […] respectively for 3 days, followed by immunoblotting for E-cad and TROP2 with β-actin as control (FIG. 1D).
(§3) The treated cells were lysed. The cell lysate samples were loaded onto SDS-PAGE gel for the western blot. Antibodies ab-214488 and cst-3195 were used to detect TROP2 and E-cadherin respectively. β-actin was used as loading control (FIG. 1C).

[2] = tested on: DNMT1, DNMT3A, and DNMT3B; assay: Immunoblotting of DNA methyltransferases (DNMTs); format: cell-based, human; conditions: breast cancer cell lines
Method: as §1

[3] = tested on: E-cadherin; assay: Immunoblotting of E-cadherin in breast cancer cell lines; format: cell-based, human; conditions: BCX-010CL cells
Method: as §1, §2, §3

[4] = tested on: SLFN11; assay: Immunoblotting of SLFN11 in breast cancer cell lines; format: cell-based, human; conditions: BCX-010CL, HCC-1937, HCC-1143, MDA-MB-157; 1 μM for 3 days; FIG. 10A
Method: as §1

[5] = tested on: TROP2 mRNA; assay: Quantitative RT-PCR of TROP2 mRNA; format: cell-based, human; conditions: decitabine 1 μM, three days; BCX-010 (control or Zeb1 shRNA) and Sum-159 cells
Method: Following treatments, cells were lysed and total RNA was extracted using GeneJet RNA Purification Kit (ThermoFisher) according to manufacturer's manual. cDNA was synthesized from RNA using High-Capacity RNA-to-cDNA Kit (ThermoFisher) following manufacturer's manual. DNA amount in cDNA samples were quantitated using Qubity dsDNA Kit (ThermoFisher). Real time PCR was performed with the same amount DNA from each sample using TaqMan Universal PCR Master Mix Kit (ThermoFisher), under the PCR conditions: 50° C., 2 minutes; 95° C., 10 minutes; [95° C., 15 seconds, 60° C., 1 minutes]×35 cycles. Fold changes of mRNA expression levels were calculated using formula 2^rrCT (rrCT: cycle threshold of treatment group-cycle threshold of control group).
BCX-010 cells (FIG. 2A) and Sum-159 cells (FIG. 2B) were treated decitabine (1 μM), panobinostat (20 nM), or DMSO for three days. Total RNA was extracted from the treated cells using GeneJet RNA kit, followed by reverse transcription using High Capacity RNA-to-cDNA kit. cDNAs were quantitated using Qubit DNA kit. Quantitative real time PCR (qPCR) was performed using Taqman Universal PCR Master Mix kit with a TROP2 probe. Relative TROP2 levels were obtained by normalization with GAPDH. Additionally, BCX-010CL cells were treated with shRNA control or ZEB1 shRNA (FIG. 2C).

[6] = tested on: TROP2; assay: Immunocytochemistry of TROP2 in SUM159 cells; format: cell-based, human; conditions: 1 μM for 3 days
Method: SUM159 cells were treated with decitabine at 1 μM for 3 days. After cell fixation, cell pellet blocks were processed and probed with anti-TROP2 antibody, followed by hematoxylin staining.
After cell fixation, cell pellet blocks were processed and probed with anti-TROP2 antibody, followed by hematoxylin staining (FIG. 2D).
Formalin-fixed paraffin-embedded (FFPE) cell lines/tissue of 4-micron thickness slides were baked at 60° C. for 1 hour. IHC staining was performed using Leica BondRXm autostainer (Leica Biosystems) for further processing. In brief, after deparaffinized by bond dewax solution, epitope retrieval (HIER) was performed with citrate buffer pH6, followed by washing steps. After peroxidase blocking (3% H2O2) for 20 minutes, slides were incubated in TROP2 rabbit monoclonal [EPR20043], catalog #ab214488 with a 1:2000 dilution for 15 minutes at ambient temperature. After transient washing, post-primary and polymer incubation for 8 min, followed by hematoxylin staining and wash steps. Afterwards, the slides were unloaded from autostainer, air dried and cover slipped with mounting media (Cytoseal XYL mounting media).

[7] = tested on: BCX-010, BCX-011 and Sum-159 cells; assay: Annexin V flow cytometry apoptosis assay; format: cell-based, human; conditions: decitabine 1 μM and/or sacituzumab govitecan 0.1 μM, three days; FIGS. 5A-5D
Method: In order to determine the effect of decitabine and/or Zeb1 knockdown treatment on sacituzumab govitecan activity, apoptosis was measured in breast cancer cell lines. BCX-010 cells (FIG. 5A and FIG. 5B), BCX-011 cells (FIG. 5C) and Sum-159 cells (FIG. 5D) were seeded in 6-cm plates, then treated with decitabine (1 μM) and/or sacituzumab govitecan (0.1 μM) for three days in an apoptosis assay. After the three day treatment, cells were stained with Annexin V. Flow cytometry was performed to sort Annexin V positive cells (apoptotic cells) (FIGS. 5A-5D). Percentage of apoptotic cells was calculated by Annexin V positive cells over total cell populations.
Cells were seeded in 6 cm plates at a density of 3×10^5 cells per well in triplicates for each treatment group. The following day, cells were treated with decitabine and SG at 1 μM and 0.1 μM respectively, or their combination. […] Using Annexin-V-FLUOS Staining Kit (Roche), cells were stained with Annexin V fluorescence and propidium iodide (PI), following manufacturer's protocol. Samples were analyzed by flow cytometry. Percentage of Annexin V positive apoptotic cells were calculated.
In apoptosis assay, cells were treated with decitabine at 1 μM, SG at 0.1 μM, or their combination for 3 days. Annexin V positive apoptotic cells were measured by flow cytometry. Percentage of apoptotic cells over total cell populations was calculated (FIG. 7D).

[8] = tested on: Sum-159 cells; assay: Colony formation assay, Sum-159; format: cell-based, human; conditions: sacituzumab govitecan 200 nM, decitabine 200 nM
Method: FIGS. 6A-6E show a colony assay of BCX-010 (FIGS. 6A-6B), BCX-011 (FIG. 6C-6D), and Sum-159 cells ([…]) after treatment with vehicle, sacituzumab govitecan (200 nM), and/or decitabine (200 nM) for 10 days. FIGS. 6A-6C show agar plates after 10 days of colony formation.
In order to determine the effect of decitabine treatment on sacituzumab govitecan activity, colony formation assays were performed in BCX-010 cells (FIGS. 6A-6B), BCX-011 cells (FIG. 6C-6D), and Sum-159 breast cancer cells (FIG. 6E-6F).
Cells were seeded in 6-well plates at a density of 1000 cells per well in triplicates for each treatment group. Next day, cells were treated with single drugs, or combination at the different concentrations. Culture medium was changed with fresh drugs twice a week. Cells were cultured for 3 weeks. Cell colonies were then fixed in 10% formalin and stained with 0.05% crystal violet in 25% methanol. The stained colonies were imaged and total colony area was quantitated using NIH ImageJ v.1.48 software. Effect-based Combination Index (CI) was calculated by inhibition percentage of single drug and combination treatments using Bliss combination model. CI=((EA+EB)−(EA*EB))/EAB, where EA, EB, and EAB are effects of drug A, B and combination AB inhibition percentage. Here the effect is inhibition percentage of colony formation compared to vehicle controls. […]

[9] = tested on: BCX-010 cells; assay: Colony formation assay, BCX-010 control and Zeb1 knockdown; format: cell-based, human; conditions: BCX-010 control and Zeb1 knockdown cells; decitabine 5 nM, sacituzumab govitecan 20 nM, 14 days
Method: FIGS. 7A-7B show a colony assay of BCX-010 cells transfected with control shRNA (FIG. 7A) or Zeb1 shRNA (FIG. 7B) after treatment with vehicle, sacituzumab govitecan (20 nM), and/or decitabine (5 nM) for 14 days. After 14 days, cell colonies formed on the plates, were fixed with 10% formalin, and stained with 0.05% crystal violet. […] Annexin V positive apoptotic cells were measured by flow cytometry. Percentage of apoptotic cells over total cell populations was calculated.
In order to determine the effect of decitabine and/or Zeb1 knockdown treatment on sacituzumab govitecan activity, colony formation assays were performed in BCX-010 breast cancer cells. BCX-010 cells (control and Zeb1 knockdown) were seeded into 6-well plates at 1000 cells/well. Cells were treated with decitabine (5 nM) and/or sacituzumab govitecan ([…]) for 14 days. Culture medium with replaced with culture medium containing fresh drugs twice. After 14 days, cell colonies form on the plates were fixed with 10% formalin and stained with 0.05% crystal violet. Total colony area and colony number were quantified using ImageJ software.

[10] = tested on: BCX-010CL cells; assay: Cell survival assay of SN-38 with or without decitabine; format: cell-based, human; conditions: decitabine co-treatment, 3 days, FIG. 10B
Method: BCX-010CL cells were treated with SN-38 at serial dilutions, with or without decitabine co-treatment for 3 days. IC50s of individual agents and combination index were calculated.
BCX-010CL cells were also treated with SN-38 at serial dilutions, with or without decitabine co-treatment for 3 days. IC50s of individual agents and combination index were calculated.

[11] = tested on: BCX-010CL, HCC-1954, HCC-1143, and MDA-MB-157 cells; assay: Cell survival assay of Sacituzumab govitecan with or without decitabine; format: cell-based, human; conditions: HCC-1954, HCC-1143, MDA-MB-157, decitabine co-treatment, 3 days, FIG. 10C
Method: BCX-010CL, HCC-1954, HCC-1143, and MDA-MB-157 cells were treated with Sacituzumab govitecan at serial dilutions, with or without decitabine co-treatment for 3 days. IC50s of individual agents and combination index were calculated.
Finally, BCX-010CL, HCC-1954, HCC-1143, and MDA-MB-157 cells were treated with Sacituzumab govitecan at serial dilutions, with or without decitabine co-treatment for 3 days. IC50s of individual agents and combination index were calculated.

[12] = tested on: TROP2 promoter; assay: Methylation-specific PCR of TROP2 promoter CpG region; conditions: BCX-010 cells; decitabine 1 μM; FIG. 3A
Method: Genomic DNA was extracted from BCX-010CL and BCX-011CL cells treated decitabine at 1 μM for 3 days, or from ZEB1 knockdown cells, and then subjected bisulfite CT conversion, followed by MSP using methylation specific primers specific to a CpG region in the TROP2 promoter. GAPDH was used as a control.
Following treatments, cells were lysed and genomic DNA (gDNA) was extracted using Genomic DNA Purification Kit (ThermoFisher) according to manufacturer's manual. Bisulfite CT conversion of quantitated gDNA was performed using EZ DNA Methylation Kit (Zymo Research) following manufacturer's manual. MSP of TROP2 promoter CpG region was performed using a methylation forward primer, a methylation reverse primer, an un-methylated forward primer, and an un-methylated reverse primer. PCR condition was set up as following: 94° C., 1 minute; [94° C., 30 seconds, 62° C., 30 seconds, 72° C., 45 seconds]×40 cycles; 72° C., 2 minutes, 4° C. About 200 bp PCR product was separated by 2% agarose gel.

[13] = tested on: BCX-010CL and BCX-011CL cells; assay: Cell survival assay of SG in TROP2-overexpressing cells; format: cell-based, human; conditions: serial dilutions, 3 days, FIG. 8B
Method: TROP2-overexpressing cells and control cells were treated with SG at concentrations in serial dilutions for 3 days. SG IC50 was calculated.
For TROP2 overexpression, breast cancer cells seeded in 6-well plates were transfected with TROP2 expression plasmid pCMV6-entry-TROP2 using Lipofectamine 3000 Kit. Two days after transfection, cells were treated with G-418 for 2-3 passages.
After G-418 selection, immunoblotting was performed to detect TROP2 expression (FIG. 8A). Next, TROP2-overexpressing cells and control cells were treated with SG at concentrations in serial dilutions for 3 days. SG IC50 was calculated (FIG. 8B).

[14] = molecular target: T1, TROP2 (Trophoblast cell surface antigen 2) (human, UniProt P09758 27-323); assay: immunofluorescence microscopy, SG-Alexa-488 at 2 ug/ml on BCX cells overexpressing TROP2; signal similar to that on MDA-MB-468 cells with high endogenous TROP2
T1 construct: whole, on cells; also called TACSTD2; tumor-associated calcium signal transducer 2
T1 sequence (looked up): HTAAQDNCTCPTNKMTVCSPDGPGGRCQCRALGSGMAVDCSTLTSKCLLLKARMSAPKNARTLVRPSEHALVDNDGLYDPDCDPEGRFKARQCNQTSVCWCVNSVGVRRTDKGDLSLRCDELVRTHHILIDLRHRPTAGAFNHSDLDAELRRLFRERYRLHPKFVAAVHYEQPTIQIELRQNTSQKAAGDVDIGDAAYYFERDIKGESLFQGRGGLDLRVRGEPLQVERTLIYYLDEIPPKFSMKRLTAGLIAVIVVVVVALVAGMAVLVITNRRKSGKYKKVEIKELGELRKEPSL

[15] = molecular target: T1, TROP2 (Trophoblast cell surface antigen …); assay: conclusion drawn from the examples' data (immunofluorescence, cell assays)
[16] = tested on: TROP2 overexpressing cells; assay: Immunofluorescence of ADC binding on cell membrane; format: cell-based, human; conditions: 2 μg/ml, 2 hours, room temperature; FIG. 12A
Method: ADC drug SG was labeled with alexa fluorescent dye using Alexa Fluo 488 Conjugation Lightening Kit (Abcam, #ab236553), following the manufactory protocol. Final SG-Alexa-488 concentration was 1 μg/μl. To bind ADC to cells, cells were seeded on cover slices in 6-well plates overnight, followed by blocking with 3% BSA/PBS at room temperature for 1 hour. Then cells were incubated with SG-Alexa-488 at 2 μg/ml at room temperature for 2 hours, followed by PBS wash twice. For internalization assay, SG-Alexa-488 was added into the culture medium in the wells at 2 μg/ml for 10 min, 3 hours, and 24 hours. Cells were fixed with 4% paraformaldehyde at room temperature for 15 min, PBS wash twice. The cover slices were mounted onto slide with DAPI counterstaining. Fluorescence on cell surface and in cytoplasm was monitored using Olympus BX51 fluorescent microscope and imaged using Nuance imaging system.

With `CCc1c(C#N)c(SC(C(N)=O)c2ccccc2)nc(N2CCC(N)CC2)c1C#N` (centres unmarked) [GSK-3685032] the “TROP2 expression (DNMT1 specific inhibitor)” value ([1]; breast cancer cell lines) was “did not upregulate TROP2 expression” and the DNMT1 protein levels [2] was “decreased DNMT1 protein levels”.

For `Nc1ncn([C@H]2C[C@H](O)[C@@H](CO)O2)c(=O)n1` [decitabine, 5-Aza-2′-deoxycytidine], the TROP2 protein expression ([1]; 1 μM for 3 days, BCX-011, BCX-010, Sum-159, BCX-010 control shRNA, BCX-010 Zeb1 shRNA, FIG. 1B) was “increased TROP2 protein expression in all 5 cell lines”, the “TROP2 expression, panel of epigenetic modulators (immunoblot)” value ([1]; BCX-010CL, BCX-011CL, SUM159 cells, 3 days, FIG. 1D) was “most effective enhancer of TROP2 expression” and the E-cadherin expression [3] was “increased E-cadherin expression”. The “SLFN11 expression (immunoblot)” value [4] was “increases SLFN11 expression”, the “TROP2 mRNA expression (qPCR, normalized with GAPDH)” value [5] was “increased TROP2 mRNA expression in all cell lines” and the “TROP2 expression (immunocytochemistry)” value [6] was “increases TROP2 expression in SUM159 cells”. For the same molecule, the “protein levels of DNMT1, DNMT3A, and DNMT3B” value ([2]; 1 μM for 3 days, FIG. 3B) was “decreased protein levels of three DNMT isoforms”, the “apoptosis (Annexin V positive cells)” value [7] was “induced cell apoptosis in BCX-010 and Sum-159 cells” and the colony formation [8] was “inhibited cell colony formation in Sum-159 cells”. For the same molecule, the colony formation [9] was “inhibited cell colony formation”, the “sensitization of cells to SN-38 (cell survival)” value [10] was “sensitizes cells to SN-38 in BCX-010CL cells” and the “sensitization of cells to Sacituzumab govitecan (cell survival)” value [11] was “sensitizes cells to Sacituzumab govitecan in breast cancer cell lines”. For the same molecule, the “TROP2 promoter methylation (MSP)” value [12] was “decreased TROP2 promoter methylation”.

sacituzumab govitecan was tested, and the “apoptosis (Annexin V positive cells)” value [7] was “induced cell apoptosis in BCX-010 and Sum-159 cells”, the colony formation [8] was “inhibited cell colony formation in Sum-159 cells” and the colony formation [9] was “inhibited cell colony formation”. For the same molecule, the “cell sensitivity to SG (IC50) in TROP2-overexpressing vs control cells” value [13] was “Overexpression of TROP2 sensitizes cells”.

B1: sacituzumab govitecan-Alexa-488 (antibody, V domains shown)
VH: QVQLQQSGSELKKPGASVKVSCKASGYTFTNYGMNWVKQAPGQGLKWMGWINTYTGEPTYTDDFKGRFAFSLDTSVSTAYLQISSLKADDTAVYFCARGGFGSSYWYFDVWGQGSLVTVSS
VL: DIQLTQSPSSLSASVGDRVSITCKASQDVSIAVAWYQQKPGKAPKLLIYSASYRYTGVPDRFSGSGSGTDFTLTISSLQPEDFAVYYCQQHYITPLTFGAGTKVEIK
modifications: conjugated to SN-38 (antibody drug conjugate) and labelled with Alexa Fluor 488; sites not stated
B1: binds [14].

B2: sacituzumab govitecan (antibody, V domains shown)
VH: B1 VH
VL: B1 VL
modifications: conjugated to SN-38 (antibody drug conjugate); sites not stated
notes: also called SG; Trodelvy
B2: binds [15].

B3: SG ADC labeled with Alexa-Fluo-488 (conjugate)
VH: B1 VH
VL: B1 VL
In the case of B3, the “immunofluorescent signal on cell membrane, TROP2-overexpressing cells” value [16] is reported as “strong immunofluorescent signal on cell membrane” and the “immunofluorescent signal on cell membrane, control cells” value [16] is reported as “negative signal”.
